Data reported in patent publication US20020169101A1, “Treatment of sexual dysfunction” (priority 1999, published 2002).

What follows are molecules tested against T1, human NMB receptor (BB1) (Homo sapiens, UniProt P28336) (assay: BB1 binding assay ([125I][Tyr4]bombesin displacement, CHO-K1 membranes)). Settings: not given.
T1 construct: expressed in transfected cells; membranes prepared from the cells
Protocol: In the following experiments, measurement of BB1 and BB2 binding was as follows. CHO-K1 cells stably expressing cloned human NMB (for (BB1 assay) and GRP receptors (for BB2 assay) were routinely grown in Ham's F12 culture medium supplemented with 10% foetal calf serum and 2 mM glutamine. For binding experiments, cells were harvested by trypsinization, and stored frozen at −70° C. in Ham's F12 culture medium containing 5% DMSO until required. On the day of use, cells were thawed rapidly, diluted with an excess of culture medium, and centrifuged for 5 minutes at 2000 g. Cells were resuspended in 50 mM Tris-HCl assay buffer (pH 7.4 at 21° C., containing 0.02% BSA, 40 μg/mL bacitracin, 2 μg/mL chymostatin, 4 μg/mL leupeptin, and 2 μM phosphoramidon), counted, and polytronned (setting 5, 10 sec) before centrifuging for 10 minutes at 28,000 g. The final pellet was resuspended in assay buffer to a final cell concentration of 1.5×10^5/mL. For binding assays, […] aliquots of membranes were incubated with [^125I][Tyr^4]bombesin (<0.1 nM) in the presence and absence of test compounds (final assay volume 250 μL) for 60 minutes and 90 minutes for NMB and GRP receptors, respectively. Nonspecific binding was defined by 1 μM bombesin. Assays were terminated by rapid filtration under vacuum onto Whatman GF/C filters presoaked in 0.2% PEI for >2 hours, and washed 50 mM Tris-HCl (pH 6.9 at 21° C.; 6×1 mL). Radioactivity bound was determined using a gamma counter.
All competition data was analysed using nonlinear regression utilizing iterative curve-plotting procedures in Prism® (GraphPad Software Inc., San Diego, USA). IC50 values were corrected to Ki values using the Cheng-Prusoff equation (Cheng Y., Prusoff W. H., Biochem. Pharmacol. 22: 3099-3108, 1973). obtained are listed in Table 1.

T1 sequence (P28336 whole entry): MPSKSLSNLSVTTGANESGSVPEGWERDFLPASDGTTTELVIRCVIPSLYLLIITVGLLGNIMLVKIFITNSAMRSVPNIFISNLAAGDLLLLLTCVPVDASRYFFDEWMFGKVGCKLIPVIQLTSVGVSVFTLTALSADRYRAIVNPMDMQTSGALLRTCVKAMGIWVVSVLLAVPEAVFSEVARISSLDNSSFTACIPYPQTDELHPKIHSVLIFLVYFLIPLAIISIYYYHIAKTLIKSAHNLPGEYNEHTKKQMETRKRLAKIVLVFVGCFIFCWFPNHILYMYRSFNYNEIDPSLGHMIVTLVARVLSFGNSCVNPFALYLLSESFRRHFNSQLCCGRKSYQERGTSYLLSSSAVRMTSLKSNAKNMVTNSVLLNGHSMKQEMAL

| IC50 [nM] | Structure (SMILES) |
| --- | --- |
| 557 | Cc1ccc(S(=O)(=O)N[C@@](C)(Cc2c[nH]c3ccccc23)C(=O)NCC2(c3ccccn3)CCCCC2)cc1 [Example 112] |
| 267 | C[C@@](Cc1c[nH]c2ccccc12)(NS(=O)(=O)c1ccccc1F)C(=O)NCC1(c2ccccn2)CCCCC1 [Example 114] |
| 1300 | CN(C)c1cccc2c(S(=O)(=O)N[C@@](C)(Cc3c[nH]c4ccccc34)C(=O)NCC3(c4ccccn4)CCCCC3)cccc12 [Example 117] |
| 322 | C[C@@](Cc1c[nH]c2ccccc12)(NS(=O)(=O)c1ccc2ccccc2c1)C(=O)NCC1(c2ccccn2)CCCCC1 [Example 118] |
| 232 | C[C@@](Cc1c[nH]c2ccccc12)(NS(=O)(=O)c1cccs1)C(=O)NCC1(c2ccccn2)CCCCC1 [Example 119] |
| 515 | C[C@@](Cc1c[nH]c2ccccc12)(NS(=O)(=O)c1ccc([N+](=O)[O-])cc1)C(=O)NCC1(c2ccccn2)CCCCC1 [Example 123] |
| 216 | C[C@@](Cc1c[nH]c2ccccc12)(NS(=O)(=O)c1ccc(Cl)c(Cl)c1)C(=O)NCC1(c2ccccn2)CCCCC1 [Example 125] |
| 553 | C[C@@](Cc1c[nH]c2ccccc12)(NS(=O)(=O)c1ccc(C(F)(F)F)cc1)C(=O)NCC1(c2ccccn2)CCCCC1 [Example 127] |
| 404 | C[C@@](Cc1c[nH]c2ccccc12)(NS(=O)(=O)c1ccc(Cl)s1)C(=O)NCC1(c2ccccn2)CCCCC1 [Example 128] |
| 134 | C[C@@](Cc1c[nH]c2ccccc12)(NS(=O)(=O)c1ccccc1C(F)(F)F)C(=O)NCC1(c2ccccn2)CCCCC1 [Example 129, (S)-3-(1H-indol-3-yl)-2-methyl-N-(1-pyridin-2-yl-cyclohexylmethyl)-2-(2-trifluoromethyl-benzenesulfonylamino)-propionamide] |
| 608 | COc1ccc(S(=O)(=O)N[C@@](C)(Cc2c[nH]c3ccccc23)C(=O)NCC2(c3ccccn3)CCCCC2)cc1OC [Example 132] |
| 766 | C[C@@](Cc1c[nH]c2ccccc12)(NS(=O)(=O)c1ccc(C#N)cc1)C(=O)NCC1(c2ccccn2)CCCCC1 [Example 133] |
| 408 | C[C@@](Cc1c[nH]c2ccccc12)(NS(=O)(=O)c1ccccc1C#N)C(=O)NCC1(c2ccccn2)CCCCC1 [Example 134] |
| 1250 | Cc1nn(C)c(Cl)c1S(=O)(=O)N[C@@](C)(Cc1c[nH]c2ccccc12)C(=O)NCC1(c2ccccn2)CCCCC1 [Example 135] |
| 515 | Cc1noc(C)c1S(=O)(=O)N[C@@](C)(Cc1c[nH]c2ccccc12)C(=O)NCC1(c2ccccn2)CCCCC1 [Example 136] |
| 256 | C[C@@](Cc1c[nH]c2ccccc12)(NS(=O)(=O)c1cccc2nsnc12)C(=O)NCC1(c2ccccn2)CCCCC1 [Example 137] |

| IC50 [nM] | Structure (SMILES) |
| --- | --- |
| 3670 | Cn1cnc(S(=O)(=O)N[C@@](C)(Cc2c[nH]c3ccccc23)C(=O)NCC2(c3ccccn3)CCCCC2)c1 [Example 138] |
| 507 | C[C@@](Cc1c[nH]c2ccccc12)(NS(=O)(=O)c1cccc2nonc12)C(=O)NCC1(c2ccccn2)CCCCC1 [Example 139] |
| 167 | COC(=O)c1sccc1S(=O)(=O)N[C@@](C)(Cc1c[nH]c2ccccc12)C(=O)NCC1(c2ccccn2)CCCCC1 [Example 140] |
| 534 | C[C@@](Cc1c[nH]c2ccccc12)(NS(=O)(=O)c1ccc(-c2ccon2)s1)C(=O)NCC1(c2ccccn2)CCCCC1 [Example 141] |
| 430 | C[C@@](Cc1c[nH]c2ccccc12)(NS(=O)(=O)Cc1ccccc1[N+](=O)[O-])C(=O)NCC1(c2ccccn2)CCCCC1 [Example 142] |
| 460 | C[C@@](Cc1c[nH]c2ccccc12)(NS(=O)(=O)c1cccc(C#N)c1)C(=O)NCC1(c2ccccn2)CCCCC1 [Example 143] |
| 2480 | Cc1nc(S(=O)(=O)N[C@@](C)(Cc2c[nH]c3ccccc23)C(=O)NCC2(c3ccccn3)CCCCC2)cn1C [Example 144] |
| 177 | C[C@@](Cc1c[nH]c2ccccc12)(NS(=O)(=O)c1cccc2cccc([N+](=O)[O-])c12)C(=O)NCC1(c2ccccn2)CCCCC1 [Example 146] |
| 374 | C[C@@](Cc1c[nH]c2ccccc12)(NS(=O)(=O)c1cc([N+](=O)[O-])ccc1Cl)C(=O)NCC1(c2ccccn2)CCCCC1 [Example 147] |
| 215 | C[C@@](Cc1c[nH]c2ccccc12)(NS(=O)(=O)c1c(Cl)cc(Cl)cc1Cl)C(=O)NCC1(c2ccccn2)CCCCC1 [Example 148] |
| 513 | C[C@@](Cc1c[nH]c2ccccc12)(NS(=O)(=O)c1ccc(Cl)cc1[N+](=O)[O-])C(=O)NCC1(c2ccccn2)CCCCC1 [Example 149] |
| 297 | C[C@@](Cc1c[nH]c2ccccc12)(NS(=O)(=O)c1ccc(S(=O)(=O)c2ccccc2)s1)C(=O)NCC1(c2ccccn2)CCCCC1 [Example 150] |
| 635 | C[C@@](Cc1c[nH]c2ccccc12)(NS(=O)(=O)c1ccc(OC(F)(F)F)cc1)C(=O)NCC1(c2ccccn2)CCCCC1 [Example 151] |
| 242 | COC(=O)c1ccccc1S(=O)(=O)N[C@@](C)(Cc1c[nH]c2ccccc12)C(=O)NCC1(c2ccccn2)CCCCC1 [Example 155] |
| 445 | COc1cc(C)ccc1S(=O)(=O)N[C@@](C)(Cc1c[nH]c2ccccc12)C(=O)NCC1(c2ccccn2)CCCCC1 [Example 159] |
| 344 | C[C@@](Cc1c[nH]c2ccccc12)(NS(=O)(=O)c1ccc(-c2ccccn2)s1)C(=O)NCC1(c2ccccn2)CCCCC1 [Example 160] |

Same assay, conditions: Table 1, human NMB receptor binding affinity; Ki from IC50 by Cheng-Prusoff; read-out: NMB Ki

| Ki [nM] | Structure (SMILES) |
| --- | --- |
| 824 | C[C@@](Cc1c[nH]c2ccccc12)(Nc1ccccc1-c1ccccc1)C(=O)NCC1(c2ccccn2)CCCCC1 [Example 21, (S)-2-(Biphenyl-2-ylamino)-3-(1H-indol-3-yl)-2-methyl-N-(1-pyridin-2-yl-cyclohexylmethyl)-propionamide] |
| 3370 | C[C@@](Cc1c[nH]c2ccccc12)(Nc1cccc(-c2ccccc2)n1)C(=O)NCC1(c2ccccn2)CCCCC1 [Example 23, (S)-3-(1H-Indol-3-yl)-2-methyl-2-(6-phenyl-pyridin-2-ylamino)-N-(1-pyridin-2-yl-cyclohexylmethyl)-propionamide] |
| 2400 | C[C@@](Cc1c[nH]c2ccccc12)(NCc1cc2ccccc2o1)C(=O)NCC1(c2ccccn2)CCCCC1 [Example 26] |

Same assay, conditions: Table 3, N-acyl derivatives of Intermediate III-7

| IC50 [nM] | Structure (SMILES) |
| --- | --- |
| 3710 | C[C@@](Cc1c[nH]c2ccccc12)(NC(=O)c1ccccn1)C(=O)NCC1(c2ccccn2)CCCCC1 [Example 57] |
| 1200 | C[C@@](Cc1c[nH]c2ccccc12)(NC(=O)c1ccoc1)C(=O)NCC1(c2ccccn2)CCCCC1 [Example 59] |
| 1200 | C[C@@](Cc1c[nH]c2ccccc12)(NC(=O)c1ccco1)C(=O)NCC1(c2ccccn2)CCCCC1 [Example 60] |
| 4130 | Cc1cc(C(=O)N[C@@](C)(Cc2c[nH]c3ccccc23)C(=O)NCC2(c3ccccn3)CCCCC2)no1 [Example 62] |
| 4820 | Cn1cccc1C(=O)N[C@@](C)(Cc1c[nH]c2ccccc12)C(=O)NCC1(c2ccccn2)CCCCC1 [Example 63, 1-Methyl-1H-pyrrole-2-carboxylic acid {(S)-2-(1H-indol-3-yl)-1-methyl-1-[(1-pyridin-2-yl-cyclohexylmethyl)-carbamoyl]-ethyl}-amide] |
| 3170 | C[C@@](Cc1c[nH]c2ccccc12)(NC(=O)c1ccc2[nH]nnc2c1)C(=O)NCC1(c2ccccn2)CCCCC1 [Example 73, 1H-Benzotriazole-5-carboxylic acid {(S)-2-(1H-indol-3-yl)-1-methyl-1-[(1-pyridin-2-yl-cyclohexylmethyl)-carbamoyl]-ethyl}-amide] |
| 1360 | C[C@@](Cc1c[nH]c2ccccc12)(NC(=O)c1cc2ccccc2cn1)C(=O)NCC1(c2ccccn2)CCCCC1 [Example 77, Isoquinoline-3-carboxylic acid {(S)-2-(1H-indol-3-yl)-1-methyl-1-[(1-pyridin-2-yl-cyclohexylmethyl)-carbamoyl]-ethyl}-amide] |
| 1420 | C[C@@](Cc1c[nH]c2ccccc12)(NC(=O)c1cnc2ccccc2n1)C(=O)NCC1(c2ccccn2)CCCCC1 [Example 78, Quinoxaline-2-carboxyiic acid {(S)-2-(1H-indol-3-yl)-1-methyl-1-[(1-pyridin-2-yl-cyclohexylmethyl)-carbamoyl]-ethyl}-amide] |

Same assay, conditions: second 'TABLE 4', N-terminal urethane derivatives of Intermediate III-7

| IC50 [nM] | Structure (SMILES) |
| --- | --- |
| 450 | C[C@@](Cc1c[nH]c2ccccc12)(NC(=O)OCc1ccc(Cl)cc1Cl)C(=O)NCC1(c2ccccn2)CCCCC1 [Example 104, {(S)-2-(1H-Indol-3-y1)-1-methyl-1-[(1-pyridin-2-yl-cyclohexylmethyl)-carbamoyl]-ethyl}-carbamic acid 2,4-dichloro-benzyl ester] |
| 171 | C[C@@](Cc1c[nH]c2ccccc12)(NC(=O)OCc1ccc2ncccc2c1)C(=O)NCC1(c2ccccn2)CCCCC1 [Example 110, {(S)-2-(1H-Indol-3-y1)-1-methyl-1-[(1-pyridin-2-yl-cyclohexylmethyl)-carbamoyl]-ethyl}-carbamic acid quinolin-6-ylmethyl ester] |
